Assay results taken from patent US8871802B2, “Naphthoquinones for disease therapies” (Zhoushan HaiZhongZhou Xinsheng Pharmaceuticals Co., Ltd., priority 2010, dated 2014).
pIC50: −log10 of the molar value.

Assays:
Type in all cases: cell-based
HT-29 = experiment: MTT cell viability, HT-29 (colorectal cancer); details: Homo sapiens, 48 hour incubation, read-out: Drug concentrations for 50% cell viability (IC50)
Description: (§1) In vitro anticancer activity of the compound of Formula I was performed using popular MTT method (Archives of Biochemistry and Biophysics, 1993, 303, […]) against lung cancer, colorectal cancer, cervical cancer, osteosarcoma, leiomyosarcoma, malignant melanoma, pancreas cancer, prostate cancer, nasopharyngeal cancer, glioma, esophageal cancer, stomach cancer, and liver cancer.
(§2) Cell Culture: A549, DLD1, SW480, LOVO, HT-29, Hela, U-20S, MES-SA, SK-MEL-28, Panc-1, DU-145, CNE, U251, Eca-109, MGC80-3, QGY-7701, BEL-7404, PLC/PRF/5, Huh-7, and SGC-7901 cells were maintained in Dulbecco's Modified Eagle Medium (DMEM) (imported from Invitrogen, Carlsbad, Calif., USA) supplemented with 10% fetal bovine serum (FBS) (Si Ji Qing, Hangzhou, China) and 1% penicillin/streptomycin/amphotercin B (imported from Invitrogen, Carlsbad, Calif., USA). Cell Viability Determination: Popular MTT method (Archives of Biochemistry and Biophysics. 1993, 303, 474-482) was used to screen the in vitro effects of the invented drugs. Briefly, 5000 to 10000 cells were inoculated per well in a 96-well plate. After overnight incubation, drug was added to the wells at final concentration of 10 μM, 5 μM, 2.5 μM, 1.25 μM, or 1 μM, 0.75 μM, 0.5 μM and 0.25 μM in complete culture medium. […] The absorbance of each well at 570 nm wavelength was measured by a micro-plate reader after gentle shaking for 20 minutes. […]

Hela = experiment: MTT cell viability, Hela (cervical cancer); details: Homo sapiens, 48 hour incubation, read-out: Drug concentrations for 50% cell viability (IC50)
Description: as §1, §2

BEL-7404 = experiment: MTT cell viability, BEL-7404 (liver cancer); details: Homo sapiens, 48 hour incubation, read-out: Drug concentrations for 50% cell viability (IC50)
Description: as §1, §2

A549 = experiment: MTT cell viability, A549 (lung cancer); details: Homo sapiens, 48 hour incubation, read-out: Drug concentrations for 50% cell viability (IC50)
Description: as §1
(§3) Cell Culture: A549, DLD1, SW480, LOVO, HT-29, Hela, U-20S, MES-SA, SK-MEL-28, Panc-1, DU-145, CNE, U251, Eca-109, MGC80-3, QGY-7701, BEL-7404, PLC/PRF/5, Huh-7, and SGC-7901 cells were maintained in Dulbecco's Modified Eagle Medium (DMEM) (imported from Invitrogen, Carlsbad, Calif., USA) supplemented with 10% fetal bovine serum (FBS) (Si Ji Qing, Hangzhou, China) and 1% penicillin/streptomycin/amphotercin B (imported from Invitrogen, Carlsbad, Calif., USA). Cell Viability Determination: Popular MTT method (Archives of Biochemistry and Biophysics. 1993, 303, 474-482) was used to screen the in vitro effects of the invented drugs. Briefly, 5000 to 10000 cells were inoculated per well in a 96-well plate. After overnight incubation, drug was added to the wells at final concentration of 10 μM, 5 μM, 2.5 μM, 1.25 μM, or 1 μM, 0.75 μM, 0.5 μM and 0.25 μM in complete culture medium. Each dose level covered 4 equivalent wells. After 48 hour incubation, one tenth volume of 5 mg/mL MTT (thiazolyl blue tetrazolium bromide, Sigma-Aldrich) stock solution was added, and incubation continued for 2 hours. Then medium was removed and 100 μL of isopropanol solution comprising 86% isopropanol, 4% aqueous 1N HCl and 10% aqueous solution of 10% SDS was added. The absorbance of each well at 570 nm wavelength was measured by a micro-plate reader after gentle shaking for 20 minutes. Drug concentrations of 50% cell viability (IC50) were calculated by LOGIT method.

U251 = experiment: MTT cell viability, U251 (glioma); details: Homo sapiens, U-251, 48 hour incubation, read-out: Drug concentrations for 50% cell viability (IC50)
Description: as §1, §2

MGC80-3 = experiment: MTT cell viability, MGC80-3 (stomach cancer); details: Homo sapiens, MGC-803, 48 hour incubation, read-out: Drug concentrations for 50% cell viability (IC50)
Description: as §1, §2

Panc-1 = experiment: MTT cell viability, Panc-1 (pancreatic cancer); details: Homo sapiens, 48 hour incubation, read-out: Drug concentrations for 50% cell viability (IC50)
Description: as §1, §2

SW480 = experiment: MTT cell viability, SW480 (colorectal cancer); details: Homo sapiens, 48 hour incubation, read-out: Drug concentrations for 50% cell viability (IC50)
Description: as §1, §2

SK-MEL-28 = experiment: MTT cell viability, SK-MEL-28 (malignant melanoma); details: Homo sapiens, 48 hour incubation, read-out: Drug concentrations for 50% cell viability (IC50)
Description: as §1, §2

DU-145 = experiment: MTT cell viability, DU-145 (prostate cancer); details: Homo sapiens, 48 hour incubation, read-out: Drug concentrations for 50% cell viability (IC50)
Description: as §1, §3

LOVO = experiment: MTT cell viability, LOVO (colorectal cancer); details: Homo sapiens, 48 hour incubation, read-out: Drug concentrations for 50% cell viability (IC50)
Description: as §1, §2

U-20S = experiment: MTT cell viability, U-20S (osteosarcoma); details: 48 hour incubation, read-out: Drug concentrations for 50% cell viability (IC50)
Description: as §1, §3

SGC-7901 = experiment: MTT cell viability, SGC-7901 (stomach cancer); details: Homo sapiens, 48 hour incubation, read-out: Drug concentrations for 50% cell viability (IC50)
Description: as §1, §2

Huh-7 = experiment: MTT cell viability, Huh-7 (liver cancer); details: Homo sapiens, 48 hour incubation, read-out: Drug concentrations for 50% cell viability (IC50)
Description: as §1, §2

CNE = experiment: MTT cell viability, CNE (nasopharyngeal cancer); details: Homo sapiens, 48 hour incubation, read-out: Drug concentrations for 50% cell viability (IC50)
Description: as §1, §2

PLC/PRF/5 = experiment: MTT cell viability, PLC/PRF/5 (liver cancer); details: Homo sapiens, 48 hour incubation, read-out: Drug concentrations for 50% cell viability (IC50)
Description: as §1, §2

MES-SA = experiment: MTT cell viability, MES-SA (leiomyosarcoma); details: Homo sapiens, 48 hour incubation, read-out: Drug concentrations for 50% cell viability (IC50)
Description: as §1, §2

DLD1 = experiment: MTT cell viability, DLD1 (colorectal cancer); details: Homo sapiens, DLD-1, 48 hour incubation, read-out: Drug concentrations for 50% cell viability (IC50)
Description: as §1, §3

QGY-7701 = experiment: MTT cell viability, QGY-7701 (liver cancer); details: QGY7701, 48 hour incubation, read-out: Drug concentrations for 50% cell viability (IC50)
Description: as §1, §2

Eca-109 = experiment: MTT cell viability, Eca-109 (esophageal cancer); details: Homo sapiens, 48 hour incubation, read-out: Drug concentrations for 50% cell viability (IC50)
Description: as §1, §2

Compound | pIC50 (HT-29) | pIC50 (Hela) | pIC50 (BEL-7404) | pIC50 (A549) | pIC50 (U251) | pIC50 (MGC80-3) | pIC50 (Panc-1) | pIC50 (SW480) | pIC50 (SK-MEL-28) | pIC50 (DU-145) | pIC50 (LOVO) | pIC50 (U-20S) | pIC50 (SGC-7901) | pIC50 (Huh-7) | pIC50 (CNE) | pIC50 (PLC/PRF/5) | pIC50 (MES-SA) | pIC50 (DLD1) | pIC50 (QGY-7701) | pIC50 (Eca-109)
CS(=O)(=O)c1cc2c(o1)C(=O)c1ccccc1C2=O [Compound I, 2-methylsulfonyl-naphtho[2,3-b]furan-4,9-dione] | 6.14 | 5.92 | 5.95 | 5.60 | 6.00 | 5.92 | 5.80 | 5.93 | 6.66 | 6.37 | 5.67 | 6.37 | 5.60 | 5.60 | 5.87 | 5.60 | 5.92 | 6.54 | 5.46 | 5.46
C[S+]([O-])c1cc2c(o1)C(=O)c1ccccc1C2=O (stereo not drawn) [Compound II, 2-methylsulfinyl-naphtho[2,3-b]furan-4,9-dione] | 6.11 | 5.83 | 5.96 | 5.60 | 6.00 | 5.92 | 5.90 | 5.90 | 6.62 | 6.30 | 5.34 | 6.41 | 5.60 | 5.60 | 5.90 | 5.70 | 6.00 | 6.55 | 5.60 | 5.42
CS(=O)(=O)c1oc2c(c1-c1ccccc1)C(=O)c1ccccc1C2=O [Compound XV, 2-methylsulfonyl-3-phenyl-naphtho[2,3-b]furan-4,9-dione] | – | – | – | < 5.00 | – | – | – | – | – | 5.30 | – | 5.44 | – | – | – | – | – | 5.60 | – | –
C[S+]([O-])c1oc2c(c1-c1ccccc1)C(=O)c1ccccc1C2=O (stereo not drawn) [Compound XVI, 2-methylsulfinyl-3-phenyl-naphtho[2,3-b]furan-4,9-dione] | – | – | – | 5.16 | – | – | – | – | – | 5.49 | – | 5.90 | – | – | – | – | – | 6.00 | – | –
